Patent US20240246960A1 (adMare Therapeutics Society, priority 2021, published 2024)
Read-outs that look alike come from different tables or passages of the source.

Columns and labels:
[1] = molecular target: T1, pDNA-PK ser2056 induction in FaDU spheroids (Homo sapiens, UniProt P78527); assay: Multicellular tumour spheroid + radiation, pDNA-PK inhibition, FaDU; format: cell-based; settings: 20 Gy
T1 construct: host or cells: FaDu
Protocol: (§1) Multicellular tumour spheroids determination of compound inhibition of pDNA-PK induction following radiation. Tumour spheroids were grown to approximately 0.5 mm in diameter and irradiated with 20 Gy in combination with inhibitor test compounds to determine their potency. Inhibitor concentration for 50% reduction in pDNA-PK induction (IC50) was determined via immunohistochemical staining in spheroid cryosections taken 2 hours following radiation. For cell survival endpoint 8 Gy radiation was used and 3 hours following radiation spheroids were dissociated, counted and plated for colony forming endpoint.
Spheroid+radiation pDNA-PK. Radiation: 20 Gy. Drug: serial dilution 5 or 10 μM down to 3.5 nM (11 wells). Spheroids: 3-6 spheroids per well (300-500 μm diameter). 20% O2 and 5% CO2. 96 well plate format. Endpoint: fluorescent immunostain pDNA-PK ser2056 and image on microscope. Analysis: determine EC50 concentrations that decreases pDNA-PK induction […] after irradiation.
(§2) Multicellular tumour spheroids were used to determine potency of test compounds in a 3D tissue environment using inhibition of pDNA-PK induction following radiation or cell survival as the endpoint. For the pDNA-PK endpoint HCT116 or FaDU tumour spheroids were grown to approximately 0.5 mm in diameter and irradiated with 20 Gy in combination with inhibitor test compounds to determine their potency. Experiments were carried out in 96 well plates containing 0.7 mls of MEM media containing 10% FBS and 10 mM glucose under 20% O2 & 5% CO2 at 37° C. Following dilution of compounds 1:1000 from DMSO stocks, compounds were serially diluted from 10 μM down to 3.5 nM and 5-10 spheroids added. 96 well plates were constantly stirred to avoid spheroids settling during the course of the experiment. The inhibitor concentration for 50% reduction in pDNA-PK induction (EC50) was determined via immunohistochemical staining in spheroid cryosections taken 2 hours following radiation using anti-pDNA-PK (ser 2056) and fixed immediately in formalin following sectioning. For cell survival endpoint 8 Gy radiation was used and, 3 hours following radiation, spheroids were dissociated, counted and plated for colony forming endpoint. Data presented in the table compound potency as EC50 [μM].

HCT116 spheroids = assay: Spheroid + radiation colony forming cell survival assay (SF), HCT116; format: cell-based; settings: 8 Gy
Protocol: as §1
Spheroid+radiation colony forming cell survival assay (SF). Radiation 8 Gy. Drug: serial dilution 5 μM down to 10 nM (12 wells×2 repeat). Spheroids: 5-10 spheroids per well ([…]). HCT116. 5% O2 and 5% CO2. 96 well pate format for assay. Protocol: pre incubate 1 hour with drug, irradiate 8 Gy, post incubate 3 hrs with drug, dissociate spheroids and count cells and plate for colony forming assay. Endpoint: wait 4-7 days and count colonies. Analysis: determine EC50 concentration that increase cell kill by 50% over radiation alone.
as §2

[2] = Microsomal stability assay, mouse liver microsomes; settings: for microsomal CLint at 0.1 uM: male, CD-1, mouse, liver microsomes, pH 7.4, Microsomal Stability Mouse Clint, 0.1 mg/mL microsomes, 0.1 uM compound
DNA-PK = molecular target: T2, DNA-PK (Homo sapiens, UniProt P78527); assay: DNA-PK Assay for Biochemical Enzymatic Inhibition (ADP Glo Kinase assay); settings: Table 1
T2 construct: purchased Invitrogen PR9107A
Method in brief: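 Human DNA-PK (25 ng) preincubated 15 min with compounds (ten three-fold dilutions) in HEPES pH 7.5, MgCl2, KCl, calf thymus DNA buffer, then substrate 434.4 μM and ATP 64.4 μM (final) for 60 min at room temperature. ADP-Glo luminescence; percent inhibition fitted by four-parameter regression for IC50.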

[3] = Microsomal stability assay, human liver microsomes; format: in vitro ADME
Protocol: Samples were then mixed and centrifuged. Supernatants were used for HPLC-MS/MS analysis. […] Peak areas corresponding to the test compound were recorded.

[4] = Hepatocyte stability assay, mouse hepatocytes; format: in vitro ADME; settings: for hepatocyte CLint at 1 uM: male, CD-1, mouse, cryopreserved hepatocytes, pH 7.3, 0.7 million cells per mL, 1 uM compound
Method in brief: (§3)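 Pooled cryopreserved hepatocytes (male CD-1 mouse, or mixed-gender human donors; ≥10 each) at 0.7 million viable cells/mL in Krebs-Henseleit buffer pH 7.3, with 1 uM compound (≤0.01% DMSO). Incubated up to 2 h at 37 °C/5% CO2, quenched with acetonitrile; parent compound followed by HPLC-MS/MS peak area.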

[5] = Hepatocyte stability assay, human hepatocytes; format: in vitro ADME
Method in brief: as §3

[6] = Example 8, spheroid, read-out: Cell line: FaDU Immunohistochemical endpoint pDNA-PK inhibition EC50
[7] = Example 9 Study 2, 20% O2, read-out: Spheroid Cell line: FaDU Immunohistochemical endpoint pDNA-PK inhibition EC50
[8] = Example 8, spheroid, read-out: Cell line: HCT116 Colony forming endpoint Surviving Fraction EC50
[9] = Example 9 Study 2, read-out: Spheroid Cell line: HCT116 Colony forming endpoint Surviving Fraction EC50

Row | EC50 [1, 6] | EC50 [1, 7] | Microsomal Stability (mouse) % rem. 60 min [2] | microsomal CLint at 0.1 uM [2] | IC50 (DNA-PK) | Microsomal Stability (human) % rem. 60 min ([3]; 60 min) | microsomal CLint at 0.1 uM ([3]; both sexes, human, liver microsomes, pH 7.4, 0.1 mg/mL microsomes, 0.1 uM compound) | Hepatocyte Stability (mouse) % rem. 120 min [4] | hepatocyte CLint at 1 uM [4] | Hepatocyte Stability (human) % rem. 120 min ([5]; 120 min) | hepatocyte CLint at 1 uM ([5]; both sexes, human, cryopreserved hepatocytes, pH 7.3, 0.7 million cells per mL, 1 uM compound) | Structure (SMILES) | EC50 (HCT116 spheroids; [8]) | EC50 (HCT116 spheroids; [9])
1 | 500 to 1000 nM | 500 to 1000 nM | F (% remaining = 25-50%) | > 116 µL/min/mg | 1 to 10 nM | – | – | – | – | – | – | Oc1cnc2cc(N3CCOCC3)nc(O[C@H]3CC[C@@H](Nc4ncccn4)CC3)c2c1 [Compound 19a, 7-Morpholino-5-(((1s,4s)-4-(pyrimidin-2-ylamino)cyclohexyl)oxy)-1,6-naphthyridin-3-ol] | 500 to 1000 nM | 500 to 1000 nM
2 | 500 to 1000 nM | 500 to 1000 nM | – | – | 1 to 10 nM | – | – | – | – | – | – | CCOCCOc1cnc(N[C@H]2CC[C@@H](Oc3nc(N4CCOCC4)cc4ncc(O)cc34)CC2)nc1 [Compound 19b, 5-(((1s,4s)-4-((5-(2-Ethoxyethoxy)pyrimidin-2-yl)amino)cyclohexyl)oxy)-7-morpholino-1,6-naphthyridin-3-ol] | 10 to 500 nM | 10 to 500 nM
3 | 500 to 1000 nM | 500 to 1000 nM | – | – | < 0.5 nM | – | – | – | – | – | – | COc1cnc(N[C@H]2CC[C@@H](Oc3nc(N4CCOCC4)cc4ncc(O)cc34)CC2)nc1 [Compound 19c, 5-(((1s,4s)-4-((5-Methoxypyrimidin-2-yl)amino)cyclohexyl)oxy)-7-morpholino-1,6-naphthyridin-3-ol] | 10 to 500 nM | 10 to 500 nM
4 | 500 to 1000 nM | 500 to 1000 nM | E (% remaining = 0-25%) | > 116 µL/min/mg | 0.5 to 1 nM | F (% remaining = 25-50%) | > 116 µL/min/mg | F (% remaining = 25-50%) | > 8.2 µL/min/1e6 cells | F (% remaining = 25-50%) | > 8.2 µL/min/1e6 cells | c1cnc(N[C@H]2CC[C@@H](Oc3nc(N4CCOCC4)cc4ncccc34)CC2)nc1 [Compound 20a, N-((1s,4s)-4-((7-Morpholino-1,6-naphthyridin-5-yl)oxy)cyclohexyl)pyrimidin-2-amine] | 10 to 500 nM | 10 to 500 nM

Further lines, the molecule ahead of its results:

Row | Structure (SMILES) | EC50 [1, 6] | EC50 [1, 7] | Microsomal Stability (mouse) % rem. 60 min [2] | microsomal CLint at 0.1 uM [2] | IC50 (DNA-PK) | Microsomal Stability (human) % rem. 60 min ([3]; 60 min) | microsomal CLint at 0.1 uM ([3]; both sexes, human, liver microsomes, pH 7.4, 0.1 mg/mL microsomes, 0.1 uM compound) | Hepatocyte Stability (mouse) % rem. 120 min [4] | hepatocyte CLint at 1 uM [4] | Hepatocyte Stability (human) % rem. 120 min ([5]; 120 min) | hepatocyte CLint at 1 uM ([5]; both sexes, human, cryopreserved hepatocytes, pH 7.3, 0.7 million cells per mL, 1 uM compound) | EC50 (HCT116 spheroids; [8]) | EC50 (HCT116 spheroids; [9])
5 | Fc1cn([C@H]2CC[C@@H](Oc3nc(N4CCOCC4)cc4ncccc34)CC2)cn1 [Compound 17a, 4-(5-(((1s,4s)-4-(4-fluoro-1H-imidazol-1-yl)cyclohexyl)oxy)-1,6-naphthyridin-7-yl)morpholine] | 500 to 1000 nM | 500 to 1000 nM | E (% remaining = 0-25%) | > 116 µL/min/mg | 0.5 to 1 nM | – | – | – | – | – | – | 10 to 500 nM | 10 to 500 nM
6 | Cc1nc(C(F)(F)F)cn1[C@H]1CC[C@@H](Oc2nc(N3CCOCC3)cc3ncccc23)CC1 [Compound 17i, 4-(5-(((1s,4s)-4-(2-methyl-4-(trifluoromethyl)-1H-imidazol-1-yl)cyclohexyl)oxy)-1,6-naphthyridin-7-yl)morpholine] | 500 to 1000 nM | 500 to 1000 nM | – | – | 0.5 to 1 nM | – | – | – | – | – | – | 10 to 500 nM | 10 to 500 nM
7 | FC(F)(F)c1cncn1[C@H]1CC[C@@H](Oc2nc(N3CCOCC3)cc3ncccc23)CC1 [Compound 17j, 4-(5-(((1s,4s)-4-(5-(trifluoromethyl)-1H-imidazol-1-yl)cyclohexyl)oxy)-1,6-naphthyridin-7-yl)morpholine] | 500 to 1000 nM | 500 to 1000 nM | E (% remaining = 0-25%) | > 116 µL/min/mg | < 0.5 nM | – | – | – | – | – | – | 500 to 1000 nM | 500 to 1000 nM
8 | Cc1cnc(N[C@H]2CC[C@@H](Oc3nc(N4CCOCC4)cc4ncccc34)CC2)nc1 [Compound 32, 5-Methyl-N-((1s,4s)-4-((7-morpholino-1,6-naphthyridin-5-yl)oxy)cyclohexyl)pyrimidin-2-amine] | 500 to 1000 nM | 500 to 1000 nM | E (% remaining = 0-25%) | > 116 µL/min/mg | < 0.5 nM | – | – | – | – | – | – | 10 to 500 nM | 10 to 500 nM
9 | FC(F)(F)c1cnc(N[C@H]2CC[C@@H](Oc3nc(N4CCOCC4)cc4ncccc34)CC2)nc1 [Compound 34, N-((1s,4s)-4-((7-Morpholino-1,6-naphthyridin-5-yl)oxy)cyclohexyl)-5-(trifluoromethyl)pyrimidin-2-amine] | 1000 to 10000 nM | 1000 to 10000 nM | E (% remaining = 0-25%) | > 116 µL/min/mg | 0.5 to 1 nM | – | – | – | – | – | – | 1000 to 10000 nM | 1000 to 10000 nM
10 | FC(F)Oc1cnc(N[C@H]2CC[C@@H](Oc3nc(N4CCOCC4)cc4ncccc34)CC2)nc1 [Compound 35, 5-(Difluoromethoxy)-N-((1s,4s)-4-((7-morpholino-1,6-naphthyridin-5-yl)oxy)cyclohexyl)pyrimidin-2-amine] | – | – | E (% remaining = 0-25%) | > 116 µL/min/mg | 1 to 10 nM | – | – | – | – | – | – | 1000 to 10000 nM | 1000 to 10000 nM
11 | O=C(N[C@H]1CC[C@@H](Oc2nc(N3CCOCC3)cc3ncccc23)CC1)c1cncnc1 [Compound 122, N-((1s,4s)-4-((7-Morpholino-1,6-naphthyridin-5-yl)oxy)cyclohexyl)pyrimidine-5-carboxamide] | 500 to 1000 nM | 500 to 1000 nM | G (% remaining = 50-75%) | > 116 µL/min/mg | 1 to 10 nM | – | – | E (% remaining = 0-25%) | > 8.2 µL/min/1e6 cells | – | – | 500 to 1000 nM | 500 to 1000 nM
12 | O=C(N[C@H]1CC[C@@H](Oc2nc(N3CCOCC3)cc3ncccc23)CC1)c1ccco1 [Compound 132, N-((1s,4s)-4-((7-Morpholino-1,6-naphthyridin-5-yl)oxy)cyclohexyl)furan-2-carboxamide] | 10 to 500 nM | 10 to 500 nM | E (% remaining = 0-25%) | > 116 µL/min/mg | < 0.5 nM | – | – | – | – | – | – | 10 to 500 nM | 10 to 500 nM
13 | O=C(N[C@H]1CC[C@@H](Oc2nc(N3CCOCC3)cc3ncccc23)CC1)c1ccc(C(F)(F)F)o1 [Compound 133, N-((1s,4s)-4-((7-Morpholino-1,6-naphthyridin-5-yl)oxy)cyclohexyl)-5-(trifluoromethyl)furan-2-carboxamide] | – | – | E (% remaining = 0-25%) | > 116 µL/min/mg | 0.5 to 1 nM | – | – | – | – | – | – | 1000 to 10000 nM | 1000 to 10000 nM
14 | CS(=O)(=O)Nc1cnc2cc(N3CCOCC3)nc(O[C@H]3CC[C@@H](n4ccnc4)CC3)c2c1 [Compound 161, N-(5-(((1s,4s)-4-(1H-imidazol-1-yl)cyclohexyl)oxy)-7-morpholino-1,6-naphthyridin-3-yl)methanesulfonamide] | 1000 to 10000 nM | 1000 to 10000 nM | F (% remaining = 25-50%) | < 116 µL/min/mg | < 0.5 nM | – | – | G (% remaining = 50-75%) | < 8.2 µL/min/1e6 cells | – | – | – | –
